# From PubChem BioAssay AID1963977 (Molecular Pharmacology Branch, DTP, NCI, 2024)
# Test system: 624824-186-R-J3-PDC multicell spheroids, viability
# Experiment: Anticancer human tumor 624824-186-R-J3-PDC patient-derived colon adenocarcinoma cell line growth inhibition [PI3K]
# Details: for IC50: curve of first compound; for viability, T/C: stronger effect = lower value
# How it was run: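 We assembled tumor spheroids that included a stromal compartment of HUVEC and MSCs, then exposed them to targeted agents alone and together with PI3K pathway inhibitors. Concentration series descended by half-log from clinically achievable Cmax levels. Viability served as the endpoint.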
# [1] = second compound 0.0316 µM, first compound 0.0316 µM
# [2] = second compound 0.0316 µM, first compound 0.1 µM
# [3] = second compound 0.0316 µM, first compound 0.316 µM
# [4] = second compound 0.0316 µM, first compound 1 µM
# [5] = second compound 0.0316 µM, first compound 3.16 µM
# [6] = second compound 0.0316 µM, first compound 10 µM
# [7] = second compound 0.1 µM, first compound 0.0316 µM
# [8] = second compound 0.1 µM, first compound 0.1 µM
# [9] = second compound 0.1 µM, first compound 0.316 µM
# [10] = second compound 0.1 µM, first compound 1 µM
# [11] = second compound 0.1 µM, first compound 3.16 µM
# [12] = second compound 0.1 µM, first compound 10 µM
# [13] = second compound 0.316 µM, first compound 0.0316 µM
# [14] = second compound 0.316 µM, first compound 0.1 µM
# [15] = second compound 0.316 µM, first compound 0.316 µM
# [16] = second compound 0.316 µM, first compound 1 µM
# [17] = second compound 0.316 µM, first compound 3.16 µM
# [18] = second compound 0.316 µM, first compound 10 µM
# [19] = second compound 1 µM, first compound 0.0316 µM
# [20] = second compound 1 µM, first compound 0.1 µM
# [21] = second compound 1 µM, first compound 0.316 µM
# [22] = second compound 1 µM, first compound 1 µM
# [23] = second compound 1 µM, first compound 3.16 µM
# [24] = second compound 1 µM, first compound 10 µM
# 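Note: spheroids exposed to agents for seven days before luminescence read.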
# 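Throughout, for viability, T/C: luminescent signal used as a stand-in for spheroid viability; percent viability relative to DMSO vehicle control wells taken as 100%.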
compound,measurement,setting,value
C#Cc1c(F)ccc2cc(O)cc(-c3ncc4c(N5CC6CCC(C5)N6)nc(OCC56CCCN5CC(F)C6)nc4c3F)c12 (centres undefined) + COc1c(OCCCN2CCOCC2)ccc2c3n(c(=NC(=O)c4cnc(N)nc4)nc12)CCN3,IC50,second compound 0.00316 µM,> 10 µM
same,IC50,second compound 0.01 µM,> 10 µM
same,IC50,second compound 0.0316 µM,> 10 µM
same,IC50,second compound 0.1 µM,> 10 µM
same,IC50,second compound 0.316 µM,0.493 µM
same,IC50,second compound 1 µM,< 0.0316 µM
same,"viability, T/C","second compound 0.00316 µM, first compound 0.0316 µM",104%
same,"viability, T/C","second compound 0.00316 µM, first compound 0.1 µM",116%
same,"viability, T/C","second compound 0.00316 µM, first compound 0.316 µM",114%
same,"viability, T/C","second compound 0.00316 µM, first compound 1 µM",103%
same,"viability, T/C","second compound 0.00316 µM, first compound 3.16 µM",112%
same,"viability, T/C","second compound 0.00316 µM, first compound 10 µM",111%
same,"viability, T/C","second compound 0.01 µM, first compound 0.0316 µM",103%
same,"viability, T/C","second compound 0.01 µM, first compound 0.1 µM",101%
same,"viability, T/C","second compound 0.01 µM, first compound 0.316 µM",102%
same,"viability, T/C","second compound 0.01 µM, first compound 1 µM",114%
same,"viability, T/C","second compound 0.01 µM, first compound 3.16 µM",103%
same,"viability, T/C","second compound 0.01 µM, first compound 10 µM",103%
same,"viability, T/C",[1],92%
same,"viability, T/C",[2],95.5%
same,"viability, T/C",[3],103%
same,"viability, T/C",[4],93%
same,"viability, T/C",[5],93%
same,"viability, T/C",[6],90.9%
same,"viability, T/C",[7],87.1%
same,"viability, T/C",[8],73.7%
same,"viability, T/C",[9],78.5%
same,"viability, T/C",[10],78.2%
same,"viability, T/C",[11],73.6%
same,"viability, T/C",[12],63.5%
same,"viability, T/C",[13],54.7%
same,"viability, T/C",[14],49.9%
same,"viability, T/C",[15],54.1%
same,"viability, T/C",[16],46.4%
same,"viability, T/C",[17],44.8%
same,"viability, T/C",[18],37.6%
same,"viability, T/C",[19],28.4%
same,"viability, T/C",[20],27.7%
same,"viability, T/C",[21],26.9%
same,"viability, T/C",[22],23.5%
same,"viability, T/C",[23],24.6%
same,"viability, T/C",[24],17.1%
CCCS(=O)(=O)Nc1ccc(F)c(C(=O)c2c[nH]c3ncc(-c4ccc(Cl)cc4)cc23)c1F + Cc1nc(NC(=O)N2CCCC2C(N)=O)sc1-c1ccnc(C(C)(C)C(F)(F)F)c1,IC50,second compound 0.0316 µM,5.14 µM
same,IC50,second compound 0.1 µM,4.63 µM
same,IC50,second compound 0.316 µM,3.75 µM
same,IC50,second compound 1 µM,1.99 µM
same,IC50,second compound 3.16 µM,0.525 µM
same,IC50,second compound 10 µM,0.0866 µM
same,"viability, T/C",[1],108%
same,"viability, T/C",[2],92.1%
same,"viability, T/C",[3],103%
same,"viability, T/C",[4],92.6%
same,"viability, T/C",[5],80.5%
same,"viability, T/C",[6],10.2%
same,"viability, T/C",[7],95.6%
same,"viability, T/C",[8],88.1%
same,"viability, T/C",[9],94.6%
same,"viability, T/C",[10],82.1%
same,"viability, T/C",[11],69.7%
same,"viability, T/C",[12],12.8%
same,"viability, T/C",[13],115%
same,"viability, T/C",[14],87.9%
same,"viability, T/C",[15],80.7%
same,"viability, T/C",[16],73.7%
same,"viability, T/C",[17],68.4%
same,"viability, T/C",[18],14.6%
same,"viability, T/C",[19],84.6%
same,"viability, T/C",[20],89.8%
same,"viability, T/C",[21],62%
same,"viability, T/C",[22],65.2%
same,"viability, T/C",[23],43.7%
same,"viability, T/C",[24],13.7%
same,"viability, T/C","second compound 3.16 µM, first compound 0.0316 µM",77.6%
same,"viability, T/C","second compound 3.16 µM, first compound 0.1 µM",64.8%
same,"viability, T/C","second compound 3.16 µM, first compound 0.316 µM",52%
same,"viability, T/C","second compound 3.16 µM, first compound 1 µM",44.6%
same,"viability, T/C","second compound 3.16 µM, first compound 3.16 µM",34.7%
same,"viability, T/C","second compound 3.16 µM, first compound 10 µM",9.51%
same,"viability, T/C","second compound 10 µM, first compound 0.0316 µM",57%
same,"viability, T/C","second compound 10 µM, first compound 0.1 µM",50.5%
same,"viability, T/C","second compound 10 µM, first compound 0.316 µM",36.1%
same,"viability, T/C","second compound 10 µM, first compound 1 µM",31.8%
same,"viability, T/C","second compound 10 µM, first compound 3.16 µM",26.6%
same,"viability, T/C","second compound 10 µM, first compound 10 µM",6.93%
